Measurements as given in US5559156A, “Method for treating animals infected with Babesia spp” (Glaxo Wellcome, Inc., priority 1994, dated 1996).
Each block holds one molecule with its values, some of them ahead of it.

Legend:
L. donovani = experiment: Activity against L. donovani in vivo in Balb/c mice; parameters: species or system L. donovani (in male Balb/c mice); conditions: for % Suppression of Liver Amastigotes: 0.25% cellacol
Experimental: Male Balb/c mice were infected intravenously with 5×10^6 L. donovani amastigotes obtained as in Example 5. One week after infection mice were randomly divided into groups of 5 and treatment with test compound commenced, using cellacol as the vehicle for the test compound. Four days after the completion of treatment all mice were sacrificed. Their livers were removed, weighted and impression smears were fixed with methanol and […] stained. The activity of the compound was determined from the number of amastigotes/500 liver cells in treated and untreated groups.

Leishmania donovani = experiment: Activity against Leishmania donovani in vitro in mouse peritoneal macrophages; assay type: cell-based, Leishmania donovani (in macrophages of CDl mice)
Experimental: Leishmania donovani was routinely maintained in male golden hamsters (Wright'strain). Amastigotes were isolated from the spleen of infected hamsters 6-8 weeks after infection for use in experimental studies.
The procedure of Neal and Croft (Journal of Antimicrobial Chemotherapy 14, 463-475 (1984) was followed. Mouse peritoneal macrophages were isolated from the peritoneal cavity of outbred CDl mice. Macrophages were cultured in Labtek eight-well tissue chamber slides in RPMI 1640 medium plus 10% heat-inactivated foetal calf serum at 37° in a 5% CO2 -air mixture. Cultures were infected with freshly isolated amastigotes 24 hours before the start of drug treatment. Finally, infected macrophages where incubated in the presence of medium containing the test compound for 7 days, medium being replaced on days 1, 3 and 5 after infection.
The compound was tested in a five-fold dilution series from 50 μM with four replicates at each dilution. Fine suspensions of the compound for testing were prepared by dilution with medium of solutions initially prepared in echanol.
The proportion of infected macrophages in Giemsa stained preparations was determined after 7 days exposure to the test compound. The ED50 value was calculated by a sigmoidal analysis.

B. divergens = experiment: Activity against B. divergens infection in gerbils, single oral dose at the time of infection; assay type: in vivo; conditions: for % Activity / Days to 0.1% Parasitaemia / Days to Redwater / Maximum % Parasitaemia / % Control % Parasitaemia (day 3): single dose
Experimental: Gerbils, in groups of 5, were injected intraperitoneally with gerbil erythrocytes infected with 10^7 B divergens. At the time of infection, the gerbils were given, per os by stomach tube, a single dose of test compound, diluted in methyl cellulose. The gerbils were assessed for the time to reach 0.1% parasitaemia and the time to reach haemoglobinurea (redwater). The maximum parasitaemia reached and suppression of parasitaemia relative to controls were assessed and the activity of the test compound calculated.

B-divergens [1] = experiment: Activity against B-divergens in vitro in human red cells; assay type: cell-based; conditions: for IC50: read-out: IC50 Human
Experimental: (§1) Activity against Babesiosis in vitro
(§2) The activity of the test compound against B-divergens in vitro, both in bovine and human red cells was measured and compared with the activities of standard anti-babesials.

B-divergens [2] = experiment: Activity against B-divergens in vitro in bovine red cells; assay type: cell-based; conditions: Bos taurus, read-out: IC50 Bovine
Experimental: as §1, §2

B-divergens [3] = conditions: two patients; cited from earlier work

Compound: O=C1C(O)=C(C2CCC(c3ccc(Cl)cc3)CC2)C(=O)c2ccccc21 (centres unmarked) [2-[4-(4-chlorophenyl)cyclohexyl]-3-hydroxy-1,4-napthoquinone]
- % Activity (B. divergens; 0.1 mg/kg per os): 0.0%
- Days to 0.1% Parasitaemia (B. divergens; 0.1 mg/kg per os): 1.0 ± 0.0 days
- Days to Redwater (B. divergens; 0.1 mg/kg per os): 3.0 ± 0.0 days
- Maximum % Parasitaemia (B. divergens; 0.1 mg/kg per os): > 40%
- % Control % Parasitaemia (day 3) (B. divergens; 0.1 mg/kg per os): 138.7 ± 18.6%
- % Activity (B. divergens; 1.0 mg/kg per os): 86.1%
- Days to 0.1% Parasitaemia (B. divergens; 1.0 mg/kg per os): 2.5 ± 0.57 days
- Days to Redwater (B. divergens; 1.0 mg/kg per os): 4.0 ± 0.82 days
- Maximum % Parasitaemia (B. divergens; 1.0 mg/kg per os): > 40%
- % Control % Parasitaemia (day 3) (B. divergens; 1.0 mg/kg per os): 13.9 ± 4.3%
- % Activity (B. divergens; 10.0 mg/kg per os): 100%
- Days to 0.1% Parasitaemia (B. divergens; 10.0 mg/kg per os): 5.6 ± 2.5 days
- Days to Redwater (B. divergens; 10.0 mg/kg per os): 9.2 ± 1.8 days
- Maximum % Parasitaemia (B. divergens; 10.0 mg/kg per os): 4.02%
- % Control % Parasitaemia (day 3) (B. divergens; 10.0 mg/kg per os): 0.0%
- % Activity (B. divergens; 50.0 mg/kg per os): 100%
- Days to 0.1% Parasitaemia (B. divergens; 50.0 mg/kg per os): > 10.0 days
- Days to Redwater (B. divergens; 50.0 mg/kg per os): > 10.0 days
- Maximum % Parasitaemia (B. divergens; 50.0 mg/kg per os): 0.0%
- % Control % Parasitaemia (day 3) (B. divergens; 50.0 mg/kg per os): 0.0%
- activity in vivo against B. divergens in gerbils (B. divergens; per os): active in vivo against B. divergens in gerbils

Compound: N=C(N)c1cccc(NC(=O)Nc2cccc(C(=N)N)c2)c1 [Amicarbalide isethionate]
- IC50 (B-divergens [1]; in vitro, human red cells): 517 nM
- IC50 (B-divergens [2]; in vitro, bovine red cells): 460 nM

Compound: CC[n+]1c(-c2ccccc2)c2cc(N)ccc2c2ccc(N)cc21 [Ethidium bromide]
- IC50 (B-divergens [1]; Homo sapiens): 69 nM
- IC50 (B-divergens [2]): 47 nM

Compound: N=C(N)c1ccc(OCCCCCOc2ccc(C(=N)N)cc2)cc1 [Pentamidine isethionate]
- IC50 (B-divergens [1]; in vitro, human red cells): 456 nM
- IC50 (B-divergens [2]; in vitro, bovine red cells): 360 nM

Further lines, with some results ahead:

- EC50 (Leishmania donovani; Leishmania donovani, Peritoneal macrophage, 168 h, 7 days exposure, sigmoidal analysis, P95% limits in brackets, read-out: ED50 [P95% limits]): 29500 nM
Compound: O=C1C(O)=C(C2CCC(c3ccc(Cl)cc3)CC2)C(=O)c2ccccc21 (mixture of isomers) [2-[4-(4-chlorophenyl)cyclohexyl]-3-hydroxy-1,4-naphthoquinone]
- % Suppression of Liver Amastigotes (L. donovani; 100 mg/kg/day × 5, Oral): 0%
- % Suppression of Liver Amastigotes (L. donovani; 100 mg/kg/day × 5, Subcutaneous): 30.5%
- activity against L. donovani in vivo (L. donovani; subcutaneous): active when administered subcutaneously
- activity against L. donovani in vitro (Leishmania donovani; 50 μM): active at 50 μM concentration against L. donovani
- inhibition at 0.4 µM (Leishmania donovani; Leishmania donovani, Peritoneal macrophage, 168 h, 0.4 μM, 7 days): 6%
- inhibition at 2 µM (Leishmania donovani; Leishmania donovani, Peritoneal macrophage, 168 h, 2 μM, 7 days): 0%
- inhibition at 10 µM (Leishmania donovani; Leishmania donovani, Peritoneal macrophage, 168 h, 10 μM, 7 days): 14.7%
- inhibition at 50 µM (Leishmania donovani; Leishmania donovani, Peritoneal macrophage, 168 h, 50 μM, 7 days): 64.8%

- IC50 (B-divergens [1]; in vitro, human red cells): 310 nM
- IC50 (B-divergens [2]; in vitro, bovine red cells): 100 nM
Compound: O=C(Nc1cccc(C2=NCCN2)c1)Nc1cccc(C2=NCCN2)c1 [Imizol]
- use in patients to cure B-divergens (B-divergens [3]): used successfully in two patients to cure B-divergens

- IC50 (B-divergens [1]; in vitro, human red cells): 96 nM
- IC50 (B-divergens [2]; in vitro, bovine red cells): 34 nM
Compound: C[n+]1cccc2cc(NC(=O)Nc3ccc4c(ccc[n+]4C)c3)ccc21 [Quinuronium sulphate]

- IC50 (B-divergens [1]; in vitro, human red cells): 36.3 nM
- IC50 (B-divergens [2]; in vitro, bovine red cells): 17.9 nM
Compound: O=C1C(O)=C([C@H]2CC[C@H](c3ccc(Cl)cc3)CC2)C(=O)c2ccccc21 [Test compound, 2-[trans-4-(4-chlorophenyl)cyclohexyl]-3-hydroxy-1,4-naphthoquinone]
- effectiveness in vitro compared with Imizol (B-divergens [1]; in vitro, Table 1 covers bovine and human red cells): more effective than Imizol in vitro
